According to ChEMBL document CHEMBL1201862, “PubChem BioAssay data set” (2004):
The source made the active and inactive calls.

Experiments:
[1] = target: T1, Short transient receptor potential channel 4 (Mus musculus, UniProt Q9QUQ5); test: block of DAMGO-driven TRPC4 calcium entry – cell-based, HEK293 TRPC4/mu-opioid, Fluo-4 calcium, dose response (AID 434942); assay type: functional;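 note: potency of inhibitors blocking the TRPC4 calcium response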
T1 sequence (Q9QUQ5 whole entry): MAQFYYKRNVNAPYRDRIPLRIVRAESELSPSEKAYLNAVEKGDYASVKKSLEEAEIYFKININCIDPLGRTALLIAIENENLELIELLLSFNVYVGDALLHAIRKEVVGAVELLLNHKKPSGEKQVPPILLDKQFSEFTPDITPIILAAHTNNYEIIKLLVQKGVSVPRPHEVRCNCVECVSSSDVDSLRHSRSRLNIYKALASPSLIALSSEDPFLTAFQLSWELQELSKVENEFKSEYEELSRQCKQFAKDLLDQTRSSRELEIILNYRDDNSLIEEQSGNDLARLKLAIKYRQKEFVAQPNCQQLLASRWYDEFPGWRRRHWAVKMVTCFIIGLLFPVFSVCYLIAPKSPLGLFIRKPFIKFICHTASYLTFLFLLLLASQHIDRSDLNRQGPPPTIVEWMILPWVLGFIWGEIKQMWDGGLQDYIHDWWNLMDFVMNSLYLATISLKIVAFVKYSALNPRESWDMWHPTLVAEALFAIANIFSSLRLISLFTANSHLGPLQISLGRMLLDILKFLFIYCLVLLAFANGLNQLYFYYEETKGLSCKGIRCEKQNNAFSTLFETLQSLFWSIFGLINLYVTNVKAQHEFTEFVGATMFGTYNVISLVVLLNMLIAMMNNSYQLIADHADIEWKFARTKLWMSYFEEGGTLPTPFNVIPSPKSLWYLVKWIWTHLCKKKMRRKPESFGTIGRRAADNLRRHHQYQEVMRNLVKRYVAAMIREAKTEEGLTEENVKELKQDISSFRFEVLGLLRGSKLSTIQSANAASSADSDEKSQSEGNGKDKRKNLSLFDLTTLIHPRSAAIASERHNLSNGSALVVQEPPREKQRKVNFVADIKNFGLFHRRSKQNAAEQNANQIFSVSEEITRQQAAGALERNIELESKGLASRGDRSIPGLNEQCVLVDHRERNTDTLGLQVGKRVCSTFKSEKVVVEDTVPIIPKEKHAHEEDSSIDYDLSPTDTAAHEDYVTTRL

[2] = target: T2, High affinity choline transporter 1 (Homo sapiens, UniProt Q9GZV3); test: human choline transporter blockers, potency – cell-based, 5-point CRC, membrane potential dye, dose response (AID 504840); assay type: functional
T2 sequence (Q9GZV3 whole entry): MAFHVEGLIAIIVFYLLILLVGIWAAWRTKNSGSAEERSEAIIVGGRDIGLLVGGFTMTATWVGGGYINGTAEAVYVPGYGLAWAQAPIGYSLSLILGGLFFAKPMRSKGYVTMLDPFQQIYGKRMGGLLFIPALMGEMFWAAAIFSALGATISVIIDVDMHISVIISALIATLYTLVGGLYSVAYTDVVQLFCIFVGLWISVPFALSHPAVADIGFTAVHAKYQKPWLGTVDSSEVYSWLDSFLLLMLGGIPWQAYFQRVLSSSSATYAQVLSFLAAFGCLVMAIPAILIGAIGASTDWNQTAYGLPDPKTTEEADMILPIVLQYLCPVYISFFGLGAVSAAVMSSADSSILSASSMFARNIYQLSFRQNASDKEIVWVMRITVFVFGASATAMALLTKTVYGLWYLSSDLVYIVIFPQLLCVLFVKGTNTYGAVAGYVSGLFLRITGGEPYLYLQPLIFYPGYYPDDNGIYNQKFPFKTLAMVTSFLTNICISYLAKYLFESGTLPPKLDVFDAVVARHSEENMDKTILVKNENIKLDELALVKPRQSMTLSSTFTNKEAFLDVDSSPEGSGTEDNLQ

[3] = T. cruzi growth inhibition in host cells, dose response, cell-based, plate reader, dry powder, set 2 (AID 652275); assay type: functional
[4] = tested on: HEK293; test: inhibition of NOD1-driven NF-kB reporter – cell-based, luminescence, uHTS, primary screen (AID 1578); assay type: functional; settings: Homo sapiens
[5] = tested on: BJ; test: BJ-TERT fibroblast viability loss – cell-based, RAS-independent, luminescence, dose response (AID 1933); assay type: functional; settings: Homo sapiens
[6] = tested on: HEK293; test: cells; assay type: functional, cell-based; settings: Homo sapiens
[7] = tested on: BJ; test: cells; assay type: functional, cell-based; settings: Homo sapiens
[8] = tested on: HEK293; test: cells; assay type: functional, cell-based; settings: Homo sapiens; remark: listed apart in the source
[9] = target: Nucleotide-binding oligomerization domain-containing protein 2 (Homo sapiens, UniProt Q9HC29); test: inhibition of NOD2-driven NF-kB reporter – cell-based, luminescence, uHTS, HEK293 (AID 1566); assay type: functional
[10] = tested on: HEK293; test: NOD2 signaling inhibitors in MDP-stimulated cells, cell-based, uHTS, luminescence (AID 2001); assay type: functional; settings: Homo sapiens
[11] = tested on: HEK293; test: cells; assay type: functional, cell-based; settings: Homo sapiens; remark: listed apart in the source
[12] = tested on: BJ; test: BJ-TERT-LT-ST fibroblast viability loss – cell-based, RAS-independent, luminescence, dose response (AID 1935); assay type: functional; settings: Homo sapiens;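 note: BJ fibroblasts immortalized with TERT plus LT and ST oncogenes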
[13] = DRD fibroblast viability loss – cell-based, non-viral oncogenic, luminescence, dose response (AID 1934); assay type: functional; settings: Homo sapiens
[14] = tested on: Vero; test: cells; assay type: functional; settings: Chlorocebus sabaeus
[15] = HGIII-sPLA2 enzyme inhibition potency – biochemical, QFRET, IC50, dose response (AID 743457);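 note: green fluorescence rise as the enzyme cleaves BODIPY PC-A2 in liposomes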
[16] = target: T3, Endoribonuclease toxin MazF (Escherichia coli K-12, UniProt P0AE70); test: activation of MazEF endoribonuclease cleavage – biochemical, fluorescence, single-stranded RNA substrate, uHTS hits, dose response (AID 588481); assay type: functional
T3 sequence (P0AE70 whole entry): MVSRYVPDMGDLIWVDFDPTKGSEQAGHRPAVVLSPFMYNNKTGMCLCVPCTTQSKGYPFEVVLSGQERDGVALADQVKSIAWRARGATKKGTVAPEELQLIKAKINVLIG

[17] = target: T3, Endoribonuclease toxin MazF; test: substrate-only fluorescence increase artefacts – biochemical, single-stranded RNase substrate, counter-screen for MazEF activator project, dose response (AID 588502); assay type: functional
[18] = target: T4, Carboxy-terminal domain RNA polymerase II polypeptide A small phosphatase 1 (Homo sapiens, UniProt Q9GZU7); test: CTDSP1 inhibitors, concentration-response, biochemical, absorbance readout, ultra-high-throughput screen actives (AID 540297); assay type: functional
T4 sequence (Q9GZU7 whole entry): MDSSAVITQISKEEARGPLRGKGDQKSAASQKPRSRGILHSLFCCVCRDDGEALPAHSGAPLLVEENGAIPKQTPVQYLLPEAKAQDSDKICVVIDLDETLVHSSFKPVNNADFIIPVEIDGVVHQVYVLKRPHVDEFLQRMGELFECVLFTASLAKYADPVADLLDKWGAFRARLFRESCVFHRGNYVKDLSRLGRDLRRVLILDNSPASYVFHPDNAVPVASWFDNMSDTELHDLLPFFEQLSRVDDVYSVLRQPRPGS

[19] = target: T5, Fatty acid synthase (Homo sapiens, UniProt P49327); test: inhibition of human FAS-TE enzyme activity – biochemical, endpoint fluorescence intensity, uHTS hits, dose response (AID 624327); assay type: functional;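 note: fluorescence from hydrolysis of an O-methyl fluorescein acyl ester substrate by the enzyme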
[20] = target: T5, Fatty acid synthase; test: inhibition of human FAS-TE enzyme activity – biochemical, kinetic fluorescence intensity, dose response (AID 624326); assay type: functional;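 note: rate of fluorescence rise from hydrolysis of a fluorogenic O-methyl fluorescein ester substrate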
[21] = target: Disintegrin and metalloproteinase domain-containing protein 17 (Homo sapiens, UniProt P78536); test: exosite inhibitors of ADAM17, dose response, biochemical (AID 743260)
[22] = inhibition of ADAM10 peptide cleavage – biochemical, FRET peptide substrate, recombinant human ADAM10, selectivity assay for ADAM17 exosite inhibitor project, dose response (AID 743259);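 note: ADAM10 enzyme cleaving a FRET peptide substrate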

Disintegrin and metalloproteinase domain-containing protein 17, sequence (P78536 whole entry, the tested form may be a part): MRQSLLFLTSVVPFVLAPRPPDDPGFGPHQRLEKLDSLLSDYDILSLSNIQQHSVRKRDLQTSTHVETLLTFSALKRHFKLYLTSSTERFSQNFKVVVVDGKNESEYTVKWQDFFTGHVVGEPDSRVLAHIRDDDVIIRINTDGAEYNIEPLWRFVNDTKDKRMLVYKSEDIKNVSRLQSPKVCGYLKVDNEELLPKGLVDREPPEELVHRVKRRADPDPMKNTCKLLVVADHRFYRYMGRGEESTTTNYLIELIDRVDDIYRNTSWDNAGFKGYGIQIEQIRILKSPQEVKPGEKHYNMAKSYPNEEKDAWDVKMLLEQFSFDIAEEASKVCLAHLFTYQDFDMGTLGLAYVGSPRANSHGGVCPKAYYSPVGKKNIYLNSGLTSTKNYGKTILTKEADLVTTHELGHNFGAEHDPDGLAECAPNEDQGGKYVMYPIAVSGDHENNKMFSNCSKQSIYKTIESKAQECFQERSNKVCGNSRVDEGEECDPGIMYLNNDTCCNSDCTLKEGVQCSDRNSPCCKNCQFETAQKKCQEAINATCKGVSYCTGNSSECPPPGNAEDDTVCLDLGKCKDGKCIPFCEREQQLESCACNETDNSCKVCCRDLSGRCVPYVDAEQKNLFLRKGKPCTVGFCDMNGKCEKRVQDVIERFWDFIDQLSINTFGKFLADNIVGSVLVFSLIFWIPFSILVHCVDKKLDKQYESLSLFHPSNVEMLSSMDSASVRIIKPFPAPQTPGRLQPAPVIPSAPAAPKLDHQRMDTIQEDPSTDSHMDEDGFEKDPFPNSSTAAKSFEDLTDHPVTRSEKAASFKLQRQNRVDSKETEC
T5 sequence (P49327 whole entry): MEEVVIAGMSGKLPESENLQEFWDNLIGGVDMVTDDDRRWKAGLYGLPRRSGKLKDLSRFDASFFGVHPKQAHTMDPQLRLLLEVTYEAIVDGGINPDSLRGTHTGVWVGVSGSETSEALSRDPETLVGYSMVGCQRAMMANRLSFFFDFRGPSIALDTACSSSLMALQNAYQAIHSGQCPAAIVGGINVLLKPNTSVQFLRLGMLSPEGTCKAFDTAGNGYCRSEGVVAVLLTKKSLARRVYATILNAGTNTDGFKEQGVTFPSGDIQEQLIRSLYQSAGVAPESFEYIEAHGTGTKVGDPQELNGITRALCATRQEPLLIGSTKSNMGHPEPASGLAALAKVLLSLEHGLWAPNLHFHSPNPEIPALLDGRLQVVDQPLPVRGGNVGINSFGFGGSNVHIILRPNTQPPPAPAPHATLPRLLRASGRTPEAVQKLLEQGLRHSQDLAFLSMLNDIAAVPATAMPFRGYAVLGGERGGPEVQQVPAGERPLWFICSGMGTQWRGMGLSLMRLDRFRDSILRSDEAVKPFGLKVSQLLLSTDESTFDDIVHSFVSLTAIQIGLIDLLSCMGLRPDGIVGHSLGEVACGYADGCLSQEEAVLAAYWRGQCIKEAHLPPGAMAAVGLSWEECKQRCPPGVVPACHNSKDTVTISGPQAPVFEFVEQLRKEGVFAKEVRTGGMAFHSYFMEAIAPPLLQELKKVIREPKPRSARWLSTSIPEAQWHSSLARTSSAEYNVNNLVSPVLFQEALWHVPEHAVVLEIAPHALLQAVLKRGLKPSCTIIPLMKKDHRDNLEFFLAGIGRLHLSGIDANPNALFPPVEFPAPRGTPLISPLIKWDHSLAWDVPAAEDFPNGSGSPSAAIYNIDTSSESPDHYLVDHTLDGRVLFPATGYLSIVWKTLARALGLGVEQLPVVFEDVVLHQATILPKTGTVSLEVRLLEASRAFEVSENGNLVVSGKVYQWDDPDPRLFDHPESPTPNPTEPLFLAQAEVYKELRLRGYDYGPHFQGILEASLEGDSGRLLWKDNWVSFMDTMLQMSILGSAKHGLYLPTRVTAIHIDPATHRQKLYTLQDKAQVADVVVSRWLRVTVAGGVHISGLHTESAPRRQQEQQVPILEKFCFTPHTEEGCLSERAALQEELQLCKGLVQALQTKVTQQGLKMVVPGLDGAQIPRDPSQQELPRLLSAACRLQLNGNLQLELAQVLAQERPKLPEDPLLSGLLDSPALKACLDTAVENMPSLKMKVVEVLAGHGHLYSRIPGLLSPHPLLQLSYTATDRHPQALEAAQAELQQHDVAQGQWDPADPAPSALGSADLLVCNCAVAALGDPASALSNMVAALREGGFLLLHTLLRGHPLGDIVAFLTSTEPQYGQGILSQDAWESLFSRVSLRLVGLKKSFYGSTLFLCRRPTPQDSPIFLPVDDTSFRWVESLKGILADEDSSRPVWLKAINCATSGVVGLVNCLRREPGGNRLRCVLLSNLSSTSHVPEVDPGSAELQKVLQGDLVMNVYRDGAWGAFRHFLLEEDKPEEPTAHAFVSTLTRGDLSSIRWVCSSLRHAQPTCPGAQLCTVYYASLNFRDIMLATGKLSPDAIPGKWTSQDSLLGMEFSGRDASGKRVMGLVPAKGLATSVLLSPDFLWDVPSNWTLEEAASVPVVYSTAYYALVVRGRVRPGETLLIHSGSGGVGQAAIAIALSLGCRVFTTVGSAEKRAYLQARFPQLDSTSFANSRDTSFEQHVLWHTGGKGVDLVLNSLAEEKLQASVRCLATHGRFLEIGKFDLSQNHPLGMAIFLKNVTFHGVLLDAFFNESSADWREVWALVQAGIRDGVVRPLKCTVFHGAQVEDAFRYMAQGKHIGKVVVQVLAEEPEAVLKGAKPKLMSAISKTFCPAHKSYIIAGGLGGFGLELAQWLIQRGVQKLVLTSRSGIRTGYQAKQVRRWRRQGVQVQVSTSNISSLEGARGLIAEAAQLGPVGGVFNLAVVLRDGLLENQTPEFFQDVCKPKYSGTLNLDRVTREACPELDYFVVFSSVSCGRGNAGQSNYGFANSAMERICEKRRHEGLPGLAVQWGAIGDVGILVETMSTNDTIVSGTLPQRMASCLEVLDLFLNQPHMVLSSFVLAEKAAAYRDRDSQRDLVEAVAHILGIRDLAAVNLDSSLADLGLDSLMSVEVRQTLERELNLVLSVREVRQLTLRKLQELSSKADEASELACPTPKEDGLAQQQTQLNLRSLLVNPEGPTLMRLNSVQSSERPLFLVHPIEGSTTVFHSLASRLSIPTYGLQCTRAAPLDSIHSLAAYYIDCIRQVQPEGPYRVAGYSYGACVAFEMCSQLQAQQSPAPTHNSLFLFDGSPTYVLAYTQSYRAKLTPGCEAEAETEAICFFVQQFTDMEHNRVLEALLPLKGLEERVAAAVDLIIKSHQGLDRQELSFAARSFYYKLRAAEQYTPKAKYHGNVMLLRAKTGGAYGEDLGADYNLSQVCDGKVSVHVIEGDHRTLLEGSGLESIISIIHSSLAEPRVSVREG
Nucleotide-binding oligomerization domain-containing protein 2, sequence (Q9HC29 whole entry, the tested form may be a part): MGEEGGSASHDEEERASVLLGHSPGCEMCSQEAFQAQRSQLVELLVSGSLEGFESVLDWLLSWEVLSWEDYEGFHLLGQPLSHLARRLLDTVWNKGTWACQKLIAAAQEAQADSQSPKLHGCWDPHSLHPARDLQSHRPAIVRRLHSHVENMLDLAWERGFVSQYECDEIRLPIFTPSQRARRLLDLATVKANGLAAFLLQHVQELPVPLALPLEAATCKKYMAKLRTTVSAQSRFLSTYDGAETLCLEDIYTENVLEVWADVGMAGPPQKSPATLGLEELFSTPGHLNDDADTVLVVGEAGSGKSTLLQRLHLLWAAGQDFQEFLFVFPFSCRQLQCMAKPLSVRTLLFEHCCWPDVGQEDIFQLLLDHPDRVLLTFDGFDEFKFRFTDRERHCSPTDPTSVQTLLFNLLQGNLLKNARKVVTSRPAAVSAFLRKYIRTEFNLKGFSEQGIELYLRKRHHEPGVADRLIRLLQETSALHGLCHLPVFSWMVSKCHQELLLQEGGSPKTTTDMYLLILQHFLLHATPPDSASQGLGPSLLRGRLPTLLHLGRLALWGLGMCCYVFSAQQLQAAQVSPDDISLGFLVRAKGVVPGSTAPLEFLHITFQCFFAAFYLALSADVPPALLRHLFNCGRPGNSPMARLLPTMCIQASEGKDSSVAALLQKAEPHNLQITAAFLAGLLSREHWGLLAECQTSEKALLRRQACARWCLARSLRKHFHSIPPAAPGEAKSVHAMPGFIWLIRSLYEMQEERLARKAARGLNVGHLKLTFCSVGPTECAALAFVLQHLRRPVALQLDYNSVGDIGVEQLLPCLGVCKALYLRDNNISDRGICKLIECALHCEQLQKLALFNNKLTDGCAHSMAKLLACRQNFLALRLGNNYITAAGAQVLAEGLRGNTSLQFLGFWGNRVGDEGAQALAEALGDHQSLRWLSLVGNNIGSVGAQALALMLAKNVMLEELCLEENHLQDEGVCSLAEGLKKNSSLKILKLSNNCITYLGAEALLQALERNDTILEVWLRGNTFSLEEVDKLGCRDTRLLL

What does the source list for `COc1ccccc1CC(Cc1nc2ccccc2[nH]1)c1nc2ccccc2[nH]1` (stereo not given)?
EC50 [1]: 3.35 µM (active); IC50 [2]: 13.8 µM (active)

For `COC[C@H](C)N1C[C@H](C)[C@@H](CN(C)Cc2ccc(Oc3ccccc3)cc2)Oc2c(NC(=O)c3ccncc3)cccc2C1=O`, which AC50 [3] is on record?
The AC50 was 1.19 nM (active).

For `COc1cc(/C=C/c2ccc3cccc(O)c3n2)cc(Cl)c1OC`, which EC50 [4] is on record?
The EC50 was 3.66 µM (active).

What about the EC50 [5] of the same compound?
Its EC50 is 23.4 µM (active).

What about the IC50 [6] of the same compound?
The IC50 was 9.42 µM (active).

And the EC50 [7]?
The EC50 was 44.9 µM (active).

What about the IC50 [8] of the same compound?
The IC50 was > 20 µM (inactive).

What about the EC50 [9] of the same compound?
The EC50 was > 20 µM (inactive).

What about the IC50 [10] of the same compound?
The IC50 was 4.22 µM (inactive).

And the IC50 [11]?
The IC50 was > 20 µM (inactive).

And the EC50 [12]?
The EC50 was > 150 µM (not active).

And the EC50 [13]?
The EC50 was 19.1 µM (active).

And the CC50 [14]?
Its CC50 is 11.6 µM (active).

For `Cc1cccc(NC(S)=NNC(=O)c2csc(C)c2)c1`, which IC50 [15] is on record?
Its IC50 is > 122 µM (inactive).

With `O=C(Nc1cccc2ccccc12)N1CC=C(c2ccccc2)CC1` as the compound, how does the EC50 [16] read?
The EC50 was 53.7 µM (inactive).

And the EC50 [17]?
Its EC50 is > 99 µM (inactive).

Which IC50 [18] does the source give for `CC1CN(C2=CC(=[N+]3CCOCC3)CC(C)(C)C2)CC(C)O1` (stereo not given) here?
The IC50 was 1.83 µM (active).

What does the source list for `Cc1cccc(NS(=O)(=O)c2ccc3[nH]c(=O)cc(C(=O)OC(C)C(=O)Nc4ccc([N+](=O)[O-])cc4)c3c2)c1` (stereo not given)?
IC50 [19]: 1.51 µM (active); IC50 [20]: 3.66 µM (active); IC50 [21]: > 69.5 µM (inactive)

For `O=C(Nc1ccc(S(=O)(=O)Nc2nccs2)cc1)c1nn(-c2ccccc2)ccc1=O`, which IC50 [18] is on record?
The IC50 was 3.52 µM (active).

With `CC(C)N1C[C@@H](CN(C)Cc2ccc(Cl)c(Cl)c2)Oc2c(NC(=O)c3ccncc3)cccc2C1=O` as the compound, how does the AC50 [3] read?
Its AC50 is 0.485 nM (active).

For `Cc1cc(C)cc(-n2c(SC(C)C(=O)NCc3ccc4c(c3)OCO4)nc3ccccc3c2=O)c1` (stereo not given), which IC50 [21] is on record?
Its IC50 is > 69.5 µM (inactive).

And the IC50 [22]?
The IC50 was 18.3 µM (inactive).
